Reference: patent US20250186541A1, “DLL3 TARGETING PEPTIDES AND CONSTRUCTS THEREOF” (MARIANA ONCOLOGY INC., priority 2023, published 2025)
Numbered stars: 1 amine (or outer) side, 2 acyl side, 3 side chain; on linkers, the order of the positions; unused ones are H or OH. Bridge positions count the residues as written; N and C are the ends. Square brackets hold non-standard residues; d marks the D form. Peptide text beside a SMILES is read from it. * marks the point of attachment. Ala(piperidin-4-yl) = O=C([C@H](CC1CCN([*:3])CC1)N[*:1])[*:2]; DOTA = O=C(O)CN1CCN(CC(=O)O)CCN(CC(=O)*)CCN(CC(=O)O)CC1; Trp(7-Me) = Cc1cccc2c(C[C@H](N)C(=O)O)c[nH]c12; Phe(4-CH2NH2) = NCc1ccc(C[C@H](N)C(=O)O)cc1; Pro(cis-4-F) = O=C(O)[C@@H]1C[C@H](F)CN1; 1Nal = N[C@@H](Cc1cccc2ccccc12)C(=O)O; 2Nal = N[C@@H](Cc1ccc2ccccc2c1)C(=O)O; NMetBuAla = CN[C@@H](CC(C)(C)C)C(=O)O; Phe(2-Me) = Cc1ccccc1C[C@H](N)C(=O)O; tBuAla = CC(C)(C)C[C@H](N)C(=O)O; dAllylGly = C=CC[C@@H](N)C(=O)O; AllylGly = C=CC[C@H](N)C(=O)O; Chg = N[C@H](C(=O)O)C1CCCCC1; αMeP = C[C@@]1(C(=O)O)CCCN1; Pip = O=C(O)[C@@H]1CCCCN1; Ahx = NCCCCCC(=O)O

target: T1, human DLL3 (Homo sapiens, UniProt Q9NYJ7); test: Affinity determination by Surface Plasmon Resonance (SPR), Biacore, 1:1 binding model; settings: biotinylated human DLL3 on streptavidin chip, 25° C.; NB = nonbinding
T1 construct: biotin (biotinylated)
T1 sequence (Q9NYJ7 27-618): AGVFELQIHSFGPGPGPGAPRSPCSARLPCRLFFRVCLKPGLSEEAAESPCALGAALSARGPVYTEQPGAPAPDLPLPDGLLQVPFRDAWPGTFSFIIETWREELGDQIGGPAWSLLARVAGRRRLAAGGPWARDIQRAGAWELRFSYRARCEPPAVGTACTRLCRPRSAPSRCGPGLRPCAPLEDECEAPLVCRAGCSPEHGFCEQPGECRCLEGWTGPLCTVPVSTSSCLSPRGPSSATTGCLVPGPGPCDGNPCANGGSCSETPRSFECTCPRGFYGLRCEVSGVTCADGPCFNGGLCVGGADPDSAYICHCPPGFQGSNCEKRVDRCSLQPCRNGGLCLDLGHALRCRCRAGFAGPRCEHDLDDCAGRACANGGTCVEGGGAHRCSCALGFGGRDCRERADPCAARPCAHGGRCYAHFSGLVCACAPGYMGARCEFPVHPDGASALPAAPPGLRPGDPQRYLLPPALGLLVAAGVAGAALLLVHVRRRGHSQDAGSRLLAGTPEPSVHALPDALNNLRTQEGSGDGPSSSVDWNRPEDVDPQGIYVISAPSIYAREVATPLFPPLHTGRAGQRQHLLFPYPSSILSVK
Outline: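 SPR with biotinylated human DLL3 captured on a streptavidin chip, with a reference surface subtracted. Samples were injected at several concentrations at 100 μL/min in phosphate buffer with 137 mM NaCl, 2.7 mM KCl, 0.05% P20 and 2% DMSO. Kinetic and affinity constants came from a 1:1 binding fit.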

C[C@@H](NC(=O)CCCCCNC(=O)CN1CCN(CC(=O)O)CCN(CC(=O)O)CCN(CC(=O)O)CC1)C(=O)N[C@@H](CO)C(=O)N[C@@H](CC(=O)O)C(=O)N[C@H]1CSSC[C@@H](C(=O)N2CCC[C@@]2(C)C(=O)N[C@@H](Cc2ccccc2)C(=O)N[C@@H](CC(=O)O)C(N)=O)NC(=O)[C@H](CC(N)=O)NC(=O)[C@H](Cc2ccc3ccccc3c2)NC(=O)[C@H](CC2CCNCC2)NC(=O)[C@H](CC(C)(C)C)NC(=O)[C@H](Cc2cccc3ccccc23)NC1=O [compound 177, DOTA-PEG4-S-D-C(3)-(1Nal)-(t-Bu-Ala)-[3-(4-piperidinyl)-Ala]-(2Nal)-N-C(3)-(aMe-P)-F -D-CONH2] ({DOTA-Ahx}-[dA]SDC[1Nal][tBuAla][Ala(piperidin-4-yl)][2Nal]NC[αMeP]FD-NH2; disulfide 4-10) was tested. Which Kd did it give?
The Kd was 0.098 nM.

How did the “SPR KD (nM)” value turn out when “Ac-(Chg)-S-D-C(3)-(1Nal)-(THPG)-Q-W-N-C(3)-(aMe-P)-F-D-D-Lys(DOTA)-CONH2 [compound 128]” was run?
The value was “slow kon”.

CC(C)C[C@@H]1NC(=O)[C@H](Cc2c[nH]c3ccccc23)NC(=O)[C@@H](NC(=O)[C@H](CC(=O)O)NC(=O)[C@H](CO)NC(=O)CCCCCNC(=O)CN2CCN(CC(=O)O)CCN(CC(=O)O)CCN(CC(=O)O)CC2)CSSC[C@@H](C(=O)N2CCC[C@H]2C(=O)N[C@@H](Cc2ccccc2)C(=O)N[C@@H](CC(=O)O)C(=O)N[C@H](CCCCN)C(N)=O)NC(=O)[C@H](CC(N)=O)NC(=O)[C@H](Cc2c[nH]c3ccccc23)NC(=O)[C@H](CCC(N)=O)NC1=O [compound 73, DOTA-Ahx-S-D-C(3)-W-L-Q-W-N-C(3)-P-F-D-(D-Lys)-NH2] ({DOTA-Ahx}-SDCWLQWNCPFD[dK]-NH2; disulfide 3-9) was tested. Which Kd did it give?
The Kd was greater than 100 nM.

CSCC[C@H](NC(C)=O)C(=O)N[C@@H](CO)C(=O)N[C@@H](CC(=O)O)C(=O)N[C@H]1CSSC[C@@H](C(=O)N2CCCC[C@H]2C(=O)N[C@@H](Cc2ccccc2)C(=O)N[C@@H](CC(=O)O)C(=O)N[C@H](CCCCNC(=O)CN2CCN(CC(=O)O)CCN(CC(=O)O)CCN(CC(=O)O)CC2)C(N)=O)NC(=O)[C@H](CC(N)=O)NC(=O)[C@H](Cc2c[nH]c3ccccc23)NC(=O)[C@H](CCC(N)=O)NC(=O)[C@H](CC(C)C)NC(=O)[C@H](Cc2c[nH]c3ccccc23)NC1=O [compound 47, Ac-M-S-D-C(3)-W-L-Q-W-N-C(3)-(Pip)-F-D-D-Lys(DOTA)-CONH2] (Ac-MSDCWLQWNC[Pip]FD[dK](DOTA)-NH2; disulfide 4-10) was tested. Which Kd did it give?
Its Kd is 26 nM.

For CSCC[C@H](NC(C)=O)C(=O)N[C@@H](CO)C(=O)N[C@@H](CC(=O)O)C(=O)N[C@H]1CSSC[C@@H](C(=O)N2CCC[C@H]2C(=O)N[C@@H](Cc2ccccc2)C(=O)N[C@@H](CC(=O)O)C(N)=O)NC(=O)[C@H](CC(N)=O)NC(=O)[C@H](Cc2c[nH]c3ccccc23)NC(=O)[C@H](CCC(N)=O)NC(=O)[C@H](CC(C)C)NC(=O)[C@H](Cc2c[nH]c3ccccc23)NC1=O [Cpd #1, Ac-M-S-D-C(3)-W-L-Q-W-N-C(3)-P-F-D-CONH2] (Ac-MSDCWLQWNCPFD-NH2; disulfide 4-10), which Kd is on record?
Its Kd is 11 nM.

How did the Kd turn out when CC(=O)N[C@H](C(=O)N[C@@H](CCCCNC(=O)CN1CCN(CC(=O)O)CCN(CC(=O)O)CCN(CC(=O)O)CC1)C(=O)N[C@@H](CC(=O)O)C(=O)N[C@H]1CSSC[C@@H](C(=O)N2CCC[C@@]2(C)C(=O)N[C@@H](Cc2ccccc2)C(=O)N[C@@H](CC(=O)O)C(N)=O)NC(=O)[C@H](CC(N)=O)NC(=O)[C@H](Cc2c[nH]c3ccccc23)NC(=O)[C@H](CCC(N)=O)NC(=O)[C@H](CC(C)C)NC(=O)[C@H](Cc2cccc3ccccc23)NC1=O)C1CCCCC1 [compound 142, Ac-(Chg)-[L-Lys(DOTA)]-D-C(3)-(1Nal)-L-Q-W-N-C(3)-(aMe-P)-F-D-CONH2] (Ac-[Chg]K(DOTA)DC[1Nal]LQWNC[αMeP]FD-NH2; disulfide 4-10) was run?
Its Kd is 20.2 nM.

Which Kd does the source give for CC(=O)N[C@H](C)C(=O)N[C@@H](CO)C(=O)N[C@@H](CC(=O)O)C(=O)N[C@H]1CSSC[C@@H](C(=O)N2CCC[C@@]2(C)C(=O)N[C@@H](Cc2ccccc2C)C(=O)N[C@@H](CC(=O)O)C(=O)N[C@H](CCCCNC(=O)CN2CCN(CC(=O)O)CCN(CC(=O)O)CCN(CC(=O)O)CC2)C(=O)O)NC(=O)[C@H](CC(N)=O)NC(=O)[C@H](Cc2ccc3ccccc3c2)NC(=O)[C@H](CCC(N)=O)NC(=O)[C@H](CC(C)(C)C)NC(=O)[C@H](Cc2cccc3ccccc23)NC1=O [Cpd #150, Ac-(D-Ala)-S-D-C(3)-(1Nal)-(t-Bu-Ala)-Q-(2Nal)-N-C(3)-(aMe-P)-(2Me-F)-D-[D-Lys(DOTA)]-COOH] (Ac-[dA]SDC[1Nal][tBuAla]Q[2Nal]NC[αMeP][Phe(2-Me)]D[dK](DOTA)-OH; disulfide 4-10) here?
The Kd was 0.13 nM.

Which Kd does the source give for CSCC[C@H](NC(C)=O)C(=O)N[C@@H](CO)C(=O)N[C@@H](CC(=O)O)C(=O)N[C@H]1CSSC[C@@H](C(=O)N2C[C@@H](F)C[C@H]2C(=O)N[C@@H](Cc2ccccc2)C(=O)N[C@@H](CC(=O)O)C(=O)N[C@H](CCCCNC(=O)CN2CCN(CC(=O)O)CCN(CC(=O)O)CCN(CC(=O)O)CC2)C(N)=O)NC(=O)[C@H](CC(N)=O)NC(=O)[C@H](Cc2c[nH]c3ccccc23)NC(=O)[C@H](CCC(N)=O)NC(=O)[C@H](CC(C)C)NC(=O)[C@H](Cc2c[nH]c3ccccc23)NC1=O [compound 43, Ac-M-S-D-C(3)-W-L-Q-W-N-C(3)-(cis4Fluoro-P)-F-D-D-Lys(DOTA)-CONH2] (Ac-MSDCWLQWNC[Pro(cis-4-F)]FD[dK](DOTA)-NH2; disulfide 4-10) here?
Its Kd is 28 nM.

With CC(=O)N[C@@H](CC1CCNCC1)C(=O)N[C@@H](CO)C(=O)N[C@@H](CC(=O)O)C(=O)N[C@H]1C/C=C\C[C@H](C(=O)N2CCC[C@@]2(C)C(=O)N[C@@H](Cc2ccccc2)C(=O)N[C@@H](CC(=O)O)C(N)=O)NC(=O)[C@H](CC(N)=O)NC(=O)[C@H](Cc2ccc3ccccc3c2)NC(=O)[C@H](Cc2ccc(CNC(=O)CN3CCN(CC(=O)O)CCN(CC(=O)O)CCN(CC(=O)O)CC3)cc2)NC(=O)[C@H](CC(C)(C)C)NC(=O)[C@H](Cc2cccc3ccccc23)NC1=O [compound 211, Ac-[3-(4-piperidinyl)-Ala]-S-D-AllyG(4)-(1Nal)-(t-Bu-Ala)-[PAF(DOTA)]-(2Nal)-N-D-AllyG(4)-(aMe-P)-F-D-CONH2] (Ac-[Ala(piperidin-4-yl)]SD[AllylGly][1Nal][tBuAla][Phe(4-CH2NH2)](DOTA)[2Nal]N[dAllylGly][αMeP]FD-NH2; staple (Z) 4-10) as the compound, how does the Kd read?
Its Kd is greater than 100 nM.

Which Kd does the source give for CC(=O)N[C@H](C(=O)N[C@@H](CO)C(=O)N[C@@H](CC(=O)O)C(=O)N[C@H]1CSSC[C@@H](C(=O)N2CCC[C@@]2(C)C(=O)N[C@@H](Cc2ccccc2)C(=O)N[C@@H](CC(=O)O)C(=O)N[C@H](CCCCNC(=O)CN2CCN(CC(=O)O)CCN(CC(=O)O)CCN(CC(=O)O)CC2)C(N)=O)NC(=O)[C@H](CC(N)=O)NC(=O)[C@H](Cc2c[nH]c3c(C)cccc23)NC(=O)[C@H](CC2CCNCC2)NC(=O)[C@H](CC(C)(C)C)N(C)C(=O)[C@H](Cc2cccc3ccccc23)NC1=O)C1CCCCC1 [compound 184, Ac-Chg-S-D-C(3)-(1Nal)-(NMe-Tba)-[3-(4-piperidinyl)-Ala]-(7Me-W)-N-C(3)-(aMe-P)-F -D-[D-Lys(DOTA)]-NH2] (Ac-[Chg]SDC[1Nal][NMetBuAla][Ala(piperidin-4-yl)][Trp(7-Me)]NC[αMeP]FD[dK](DOTA)-NH2; disulfide 4-10) here?
Its Kd is greater than 30 nM.

Which Kd does the source give for CC(=O)N[C@@H](CCC(=O)O)C(=O)N[C@@H](CO)C(=O)N[C@@H](CC(=O)O)C(=O)N[C@H]1CSSC[C@@H](C(=O)N2CCC[C@H]2C(=O)N[C@@H](Cc2ccccc2)C(=O)N[C@@H](CC(=O)O)C(=O)N[C@H](CCCCNC(=O)CN2CCN(CC(=O)O)CCN(CC(=O)O)CCN(CC(=O)O)CC2)C(N)=O)NC(=O)[C@H](CC(N)=O)NC(=O)[C@H](Cc2c[nH]c3ccccc23)NC(=O)[C@H](CCC(N)=O)NC(=O)[C@H](CC(C)C)NC(=O)[C@H](Cc2c[nH]c3ccccc23)NC1=O [compound 81, Ac-Glu-S-D-C(3)-W-L-Q-W-N-C(3)-P-F-D-D-Lys(DOTA)-CONH2] (Ac-ESDCWLQWNCPFD[dK](DOTA)-NH2; disulfide 4-10) here?
The Kd was 12.3 nM.

Which Kd does the source give for CC(=O)N[C@@H](CO)C(=O)N[C@@H](CC(=O)O)C(=O)N[C@H]1CSSC[C@@H](C(=O)N2CCC[C@H]2C(=O)N[C@@H](Cc2ccccc2)C(=O)N[C@@H](CC(=O)O)C(=O)N[C@@H](CCCCNC(=O)CN2CCN(CC(=O)O)CCN(CC(=O)O)CCN(CC(=O)O)CC2)C(N)=O)NC(=O)[C@H](CC(N)=O)NC(=O)[C@H](Cc2c[nH]c3ccccc23)NC(=O)[C@H](CCC(N)=O)NC(=O)[C@H](CC(C)C)NC(=O)[C@H](Cc2c[nH]c3ccccc23)NC1=O [compound 86, Ac-S-D-C(3)-W-L-Q-W-N-C(3)-P-F-D-[L-Lys(DOTA)]-NH2] (Ac-SDCWLQWNCPFDK(DOTA)-NH2; disulfide 3-9) here?
The Kd was 12.3 nM.

Which Kd does the source give for CC(=O)N[C@H](C)C(=O)N[C@@H](CO)C(=O)N[C@@H](CC(=O)O)C(=O)N[C@H]1CSSC[C@@H](C(=O)N2CCC[C@H]2C(=O)N[C@@H](Cc2ccccc2)C(=O)N[C@@H](CC(=O)O)C(=O)N[C@H](CCCCNC(=O)CN2CCN(CC(=O)O)CCN(CC(=O)O)CCN(CC(=O)O)CC2)C(N)=O)NC(=O)[C@H](CC(N)=O)NC(=O)[C@H](Cc2c[nH]c3ccccc23)NC(=O)[C@H](CCC(N)=O)NC(=O)[C@H](CC(C)C)NC(=O)[C@H](Cc2cccc3ccccc23)NC1=O [compound 104, Ac-(D-Ala)-S-D-C(3)-(1Nal)-L-Q-W-N-C(3)-P-F-D-D-Lys(DOTA)-CONH2] (Ac-[dA]SDC[1Nal]LQWNCPFD[dK](DOTA)-NH2; disulfide 4-10) here?
Its Kd is 0.35 nM.
